From ChEMBL document CHEMBL6109054, “Development of novel GI-centric prostaglandin E2 receptor type 4 (EP4) agonist prodrugs as treatment for ulcerative colitis and other intestinal inflammatory diseases” (Bioorg Med Chem Lett, 2025)
One block for each compound: values may come before it. The source made the active and inactive calls. The rule behind the calls is not given here.

Tests used:
[1] = Prodrug conversion in human plasma assessed as 7(R)-(2-((R,E)-4,4-difluoro-3-hydroxy-4-phenyl)but-1-en-1-yl)-5-oxopyrrolidin-1-yl)heptanoic acid release by measuring half-life; format: ADME, cell-free
[2] = Prodrug conversion in mouse gut assessed as 7(R)-(2-((R,E)-4,4-difluoro-3-hydroxy-4-phenyl)but-1-en-1-yl)-5-oxopyrrolidin-1-yl)heptanoic acid formation by measuring half-life at 100 uM; format: ADME, tissue-based
Mus musculus [3] = test: Anti-inflammatory activity in rectal dosed DSS-induced mouse model assessed as reduction in inflammatory cell infiltration treated as prodrug for 8 days; format: functional, organism-based; details: route rec, time 8.0 day
[4] = Prodrug conversion in blood of DSS-induced colitis mouse model assessed as 7(R)-(2-((R,E)-4,4-difluoro-3-hydroxy-4-phenyl)but-1-en-1-yl)-5-oxopyrrolidin-1-yl)heptanoic acid formation administered as rectal dose and measured after 4 days by LC/MS/MS analysis; format: ADME, tissue-based; details: other, 96 h, route rec, time 4 day
[5] = Stability of compound in PBS buffer at pH 7.2 at 200 ug/mL measured over 170 hrs; format: physicochemical; details: pH 7.2, 170 h, at 200 µg/mL
[6] = Stability of compound in PBS buffer at pH 9 at 200 ug/mL measured over 170 hrs; format: physicochemical; details: pH 9, 170 h, at 200 µg/mL
[7] = Prodrug release in PBS buffer at pH 2 assessed as release of 7(R)-(2-((R,E)-4,4-difluoro-3-hydroxy-4-phenyl)but-1-en-1-yl)-5-oxopyrrolidin-1-yl)heptanoic acid by measuring half-life; format: ADME
[8] = Prodrug conversion in mouse serum assessed as 7(R)-(2-((R,E)-4,4-difluoro-3-hydroxy-4-phenyl)but-1-en-1-yl)-5-oxopyrrolidin-1-yl)heptanoic acid release by measuring half-life; format: ADME, cell-free
[9] = Prodrug conversion in mouse colon assessed as 7(R)-(2-((R,E)-4,4-difluoro-3-hydroxy-4-phenyl)but-1-en-1-yl)-5-oxopyrrolidin-1-yl)heptanoic acid formation by measuring half-life; format: ADME, tissue-based; details: in vivo
[10] = Prodrug conversion in mouse ileum assessed as 7(R)-(2-((R,E)-4,4-difluoro-3-hydroxy-4-phenyl)but-1-en-1-yl)-5-oxopyrrolidin-1-yl)heptanoic acid formation by measuring half-life; format: ADME, tissue-based; details: in vivo
[11] = Prodrug conversion in mouse blood assessed as 7(R)-(2-((R,E)-4,4-difluoro-3-hydroxy-4-phenyl)but-1-en-1-yl)-5-oxopyrrolidin-1-yl)heptanoic acid formation administered orally with 1 mg/kg equivalent dose of active drug and measured after 0.5 hrs by LC/MS/MS analysis; format: ADME, organism-based; details: in vivo, po
[12] = Prodrug conversion in mouse blood assessed as 7(R)-(2-((R,E)-4,4-difluoro-3-hydroxy-4-phenyl)but-1-en-1-yl)-5-oxopyrrolidin-1-yl)heptanoic acid formation administered orally with 1 mg/kg equivalent dose of active drug and measured for 1 to 4 hrs by LC/MS/MS analysis; format: ADME, organism-based; details: in vivo, po, time 1-4 hrs
[13] = Prodrug conversion in mouse blood assessed as concentration of 7(R)-(2-((R,E)-4,4-difluoro-3-hydroxy-4-phenyl)but-1-en-1-yl)-5-oxopyrrolidin-1-yl)heptanoic acid administered as rectal dose and measured after 1 hr; format: ADME, tissue-based; details: other, route rec
[14] = Toxicity in rectal dosed mouse assessed as body weight loss administered for 8 days; format: organism-based; details: in vivo, other, 192 h, route rec, time 8 day
Mus musculus [15] = test: Anti-inflammatory activity in rectal dosed DSS-induced colitis mouse model assessed as change in disease activity index (DAI) treated as prodrug for 8 days; format: functional, organism-based; details: route rec, time 8.0 day
Mus musculus [16] = test: Anti-inflammatory activity in rectal dosed DSS-induced colitis mouse model assessed as increase in colon length treated as prodrug for 8 days; format: functional, organism-based; details: route rec, time 8.0 day
Mus musculus [17] = test: Anti-inflammatory activity in rectal dosed DSS-induced mouse model assessed as reduction in epithelial cell damage treated as prodrug for 8 days; format: functional, organism-based; details: route rec, time 8.0 day
[18] = Prodrug conversion in blood of DSS-induced colitis mouse model assessed as 7(R)-(2-((R,E)-4,4-difluoro-3-hydroxy-4-phenyl)but-1-en-1-yl)-5-oxopyrrolidin-1-yl)heptanoic acid formation administered as rectal dose and measured after 7 days by LC/MS/MS analysis; format: ADME, tissue-based; details: other, 168 h, route rec, time 7 day
[19] = Drug uptake in mouse blood administered as rectal dose and measured after 1 hrs; format: ADME, tissue-based; details: route rec, read-out: Ct
[20] = Elimination half-life in rat; format: ADME; details: in vivo, read-out: beta t1/2

t1/2 [1]: 12.7 h
t1/2 [2]: < 0.083 h
Structure (SMILES): CCCC(O[C@H](/C=C/[C@H]1CCC(=O)N1CCCCCCC(=O)OCC)C(F)(F)c1ccccc1)OP(=O)(O)O (stereo partly specified)

Drug metabolism [4]: 1.5 ng/mL
Stability [5]: Stable
Stability [6]: Stable
t1/2 [7]: ~ 300 hr
t1/2 [1]: 1.5 h
t1/2 [8]: 3.3 h
t1/2 [2]: < 0.083 h
t1/2 [9]: 0.333 h
t1/2 [10]: 9 min
Drug metabolism [11]: metabolite_detected
Drug metabolism [12]: metabolite_detected
Drug metabolism [13]: 5.4 ng/mL
Drug metabolism [18]: 1.5 ng/mL
Structure (SMILES): O=C(O)CCCCCCN1C(=O)CC[C@@H]1/C=C/[C@@H](OCOP(=O)(O)O)C(F)(F)c1ccccc1
Activity (Mus musculus [3]): Active
Activity [14]: Non-toxic
Activity (Mus musculus [15]): Not active; Little Or No Change Observed
Activity (Mus musculus [16]): Active
Activity (Mus musculus [17]): Active

t1/2 [1]: 45 h
t1/2 [2]: 0.667 h
Structure (SMILES): CCOC(=O)CCCCCCN1C(=O)CC[C@@H]1/C=C/[C@@H](OC(OP(=O)(O)O)c1ccccc1)C(F)(F)c1ccccc1 (stereo partly specified)

concentration at 1 h [19]: 35.8 ng/mL
half-life [20]: < 1 h
Structure (SMILES): O=C(O)CCCCCCN1C(=O)CC[C@@H]1/C=C/[C@@H](O)C(F)(F)c1ccccc1
Activity [14]: Non-toxic

half-life [20]: > 24 h
Structure (SMILES): O=C1CC[C@H](/C=C/[C@@H](O)C(F)(F)c2ccccc2)N1CCCCCCc1nnn[nH]1

t1/2 [1]: 10.4 h
t1/2 [2]: < 0.083 h
Structure (SMILES): CCOC(=O)CCCCCCN1C(=O)CC[C@@H]1/C=C/[C@@H](OC(C)OP(=O)(O)O)C(F)(F)c1ccccc1 (stereo partly specified)

Drug metabolism [11]: metabolite_detected
Drug metabolism [12]: metabolite_detected
Drug metabolism [13]: 2.6 ng/mL
Structure (SMILES): O=C(O)CCCCCCN1C(=O)CC[C@@H]1/C=C/[C@@H](OC(OP(=O)(O)O)c1ccccc1)C(F)(F)c1ccccc1 (stereo partly specified)
